Primed or numbered codes have the meaning given here. Where no end group is shown, it is not given here. [ ]: non-standard residue; d: D form. mp4″ = 4 mini PEG linker (mini-PEG spacer)
Key:
[1] = system: Swiss Webster fracture-bearing mice (healed femur); test: postmortem 4 point bend of the healed femur; format: in vivo
Source text: All in vivo data included herein are from Swiss Webster mice. All mice received an osteotomy on their right femur and received subcutaneous drug administration daily for either 2,3 or 4 weeks, or 17 days, as indicated, for each compound. 1× concentration represents 1 nmol/day, 10× represents 10 nmol/day, 100× represents 100 nmol/day most studies have an n of 5.
The term “Peak Load” means a postmortem 4 point bend of the healed femur. Peak load represents the maximum force the healed femur withstood before it refractured.
The targeted conjugates were synthesized using standard Fmoc solid-phase peptide synthesis, as described above. To ensure the conjugates' activity, mouse pre-osteoblast ([…]) cells were treated with the targeted and untargeted compounds for three days at concentrations from 1 pM to 100 nM. After three days of treatment, the cells were harvested, and the RNA was purified from the cells. Expression levels of ALP, RUNx2 (transcription factor for osteoblast differentiation), osterix (OSX), osteopontin (OPN), collagen 1A (Col-1A), OPG, RANKL, sclerostin gene (SOST), and OC were quantified via quantitative reverse transcription polymerase chain reaction (RT-qPCR). Once the biological activity of the conjugates was confirmed, they were tested in vivo in a fracture model. Aseptic surgical techniques were used to place a 23-gage needle as in intramedullary nail in the femur of anesthetized, 12-week-old Swiss Webster mice for internal fixation before fracture. Femur fractures were induced using a drop weight fracture device from RISystem. The mice received buprenorphine for three days post fracture. The mice were dosed subcutaneously each day for three weeks or 17 days. Fracture healing was assessed using microCT (Scanco Medical Ag). Morphometric parameters were quantified in the 100 widest slices of the fracture callus. Trabecular thickness (Tb.Th.), trabecular spacing (Tb.Sp.), total volume (TV), and volume of calcified callus (BV) were calculated. Fractured femurs were tested for strength in a four-point bend to failure using an Electro Force TestBench (TA Instruments). Lower supports were 10 mm apart on the anterior face of the femur in contact with the proximal and distal diaphysis. Upper supports were 4 mm apart and spanned the entire fracture callus on the diaphysis. Force was applied from the posterior face of the femur with a displacement rate of 0.3 mm/sec. Peak load, yield load, stiffness, displacement post yield, work to fracture, and deformation data were generated. Statistical analysis was performed using a two-way analysis of variance (ANOVA) and a Tukey post-hoc analysis with significance reported at the 95% confidence level. All animal experiments were performed in accordance with protocols approved by Purdue University's Institutional Animal Care and Use Committee (IACUC).

[2] = system: Swiss Webster fracture-bearing mice (fracture callus); test: micro CT of the fracture callus in the femur fracture model; format: in vivo
[3] = 17 days, 0.1, 1 and 10 nmol daily s.c., n=5

SPARC113_mp4_(D)E10: SEQ ID NO: 30, SPARC residues 113-127 conjugated via 4 minipegs with 10 glutamic acids (H[dE][dE][dE][dE][dE][dE][dE][dE][dE][dE][mp4″]TLEGTKKGHKLHLDY)
Max load (peak load) [1, 3]: raises bone strength
Work to fracture [1, 3]: raises bone strength
BV (bone volume) [2, 3]: raises bone mineralization
BV/TV [2, 3]: raises bone density

substance P D10: SEQ ID NO: 4, substance P with 4 mini PEG linker and conjugated with 10 aspartate acids (DDDDDDDDDDRPKPQQFFGLM; 4 mini PEG linker; substance P 4 mini PEG D10 with; (10)..(11) 4 mini PEG linker)
Peak load (max load) of healed femur ([1]; 4 weeks, printed dose 0×): 30-35 Newtons
BV/TV ([2]; 4 weeks, 1, 10 and 100 nmol/day): dose dependent manner

Reference: patent publication US20210213135A1 (Purdue Research Foundation, priority 2018, published 2021)
